Assay results taken from US11339171B2, “MDM2 inhibitors” (Gan & Lee Pharmaceuticals, priority 2017, dated 2022).

Target: T1, MDM2 (Homo sapiens, UniProt Q00987)
T1 construct: made in house
Assay: Inhibition test of MDM2-P53 (GST-MDM2, Biotin-P53, Anti-GST-Tb, SA-XL665)
Format: binding
How it was run: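 Compounds, serially diluted 5-fold (twelve concentrations), were shaken for 90 min at 25° C with a mix of GST-MDM2 (4 nM final), Biotin-P53, anti-GST-Tb and SA-XL665. Buffer: 1×PBS, 0.1% BSA, 5 mM DTT, 1 mM AEBSF; signal read on a microplate reader.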

T1 sequence (Q00987 whole entry): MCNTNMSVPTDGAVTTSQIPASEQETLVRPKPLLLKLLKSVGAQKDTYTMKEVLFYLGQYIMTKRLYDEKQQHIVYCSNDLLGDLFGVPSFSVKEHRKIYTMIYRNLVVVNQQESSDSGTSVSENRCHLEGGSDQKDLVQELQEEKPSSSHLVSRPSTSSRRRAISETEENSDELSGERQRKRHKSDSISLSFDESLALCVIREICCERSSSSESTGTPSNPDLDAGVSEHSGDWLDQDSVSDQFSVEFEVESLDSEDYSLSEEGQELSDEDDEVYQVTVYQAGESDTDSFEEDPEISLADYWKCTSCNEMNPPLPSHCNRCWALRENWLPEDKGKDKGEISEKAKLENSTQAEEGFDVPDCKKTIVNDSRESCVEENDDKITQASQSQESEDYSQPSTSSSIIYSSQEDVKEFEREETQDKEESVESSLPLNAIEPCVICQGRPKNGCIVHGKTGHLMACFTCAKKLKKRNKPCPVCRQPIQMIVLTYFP

`COc1cc(C2CC2)ccc1-c1nc2c(n1C(C)C)[C@]1(C(=O)Nc3cc(Cl)ccc31)N(c1cc(Cl)cnc1C)C2=O` [Example R-145, (R)-6-chloro-5′-(5-chloro-2-methylpyridin-3-yl)-2′-(4-cyclopropyl-2-methoxyphenyl)-3′-isopropyl-3′H-spiro[dihydroindole-3,4′-pyrrolo[3,4-d]imidazole]-2,6′(5′H)-dione] and `COc1cc(C(C)C)ncc1-c1nc2c(n1C(C)C)[C@]1(C(=O)Nc3cc(Cl)ccc31)N(c1cc(Cl)cnc1C)C2=O` [Example R-166, (R)-6-chloro-5′-(5-chloro-2-methylpyridin-3-yl)-3′-isopropyl-2′-(6-isopropyl-4-methoxypyridin-3-yl)-3′H-spiro[dihydroindole-3,4′-pyrrolo[3,4-d]imidazole]-2,6′(5′H)-dione] are within 1.5-fold of each other in IC50: 749 nM for the first, 957 nM for the second.

Compared with `CCOc1ccc(-c2nc3c(n2C(C)C)[C@]2(C(=O)Nc4cc(Cl)ccc42)N(c2cc(Cl)ccc2C)C3=O)c(OC)n1` [Example R-146, (R)-6-chloro-5′-(5-chloro-2-methylphenyl)-2′-(6-ethoxy-2-methoxypyridin-3-yl)-3′-isopropyl-3′H-spiro[dihydroindole-3,4′-pyrrolo[3,4-d]imidazole]-2,6′(5′H)-dione], `COc1nc(C(C)C)ccc1-c1nc2c(n1C(C)C)[C@]1(C(=O)Nc3cc(Cl)ccc31)N(c1cc(Cl)ccc1C)C2=O` [Example R-149, (R)-6-chloro-5′-(5-chloro-2-methylphenyl)-3′-isopropyl-2′-(6-isopropyl-2-methoxypyridin-3-yl)-3′H-spiro[dihydroindole-3,4′-pyrrolo[3,4-d]imidazole]-2,6′(5′H)-dione] is 2.9-fold lower in IC50: 6710 nM for the first, 2280 nM for the second. The second is the more potent here.

`COc1cc(OCCO)ccc1-c1nc2c(n1C(C)C)[C@]1(C(=O)Nc3cc(Cl)ccc31)N(c1cc(Cl)ccc1C)C2=O` [Example R-148, (R)-6-chloro-5′-(5-chloro-2-methylphenyl)-2′-(4-(2-hydroxyethoxy)-2-methoxyphenyl)-3′-isopropyl-3′H-spiro[dihydroindole-3,4′-pyrrolo[3,4-d]imidazole]-2,6′(5′H)-dione] and `COc1cc(OCCF)ncc1-c1nc2c(n1C(C)C)[C@]1(C(=O)Nc3cc(Cl)ccc31)N(c1cc(Cl)ccc1C)C2=O` [Example R-163, (R)-6-chloro-5′-(5-chloro-2-methylphenyl)-2′-(6-(2-fluoroethoxy)-4-methoxypyridin-3-yl)-3′-isopropyl-3′H-spiro[dihydroindole-3,4′-pyrrolo[3,4-d]imidazole]-2,6′(5′H)-dione] are within 1.5-fold of each other in IC50: 201 nM for the first, 166 nM for the second.

Going from `COc1ncc(-c2nc3c(n2C(C)C)[C@]2(C(=O)Nc4cc(Cl)ccc42)N(c2cc(Cl)ccc2C#N)C3=O)c(OC)n1` [Example R-151, (R)-4-chloro-2-(6-chloro-2′-(2,4-dimethoxypyrimidin-5-yl)-3′-isopropyl-2,6′-dioxo-3′,6′-dihydro-5′H-spiro[dihydroindole-3,4′-pyrrolo[3,4-d]imidazole]-5′-yl)benzonitrile] to `COc1ncc(-c2nc3c(n2C(C)C)[C@]2(C(=O)Nc4cc(Cl)ccc42)N(c2ccc(C#N)c(Cl)c2)C3=O)c(OC)n1` [Example R-158, (R)-2-chloro-4-(6-chloro-2′-(2,4-dimethoxypyrimidin-5-yl)-3′-isopropyl-2,6′-dioxo-3′,6′-dihydro-5′H-spiro[dihydroindole-3,4′-pyrrolo[3,4-d]imidazole]-5′-yl)benzonitrile], the IC50 falls from 5370 nM to 2200 nM (2.4-fold).

Compared with `COc1cc(C(F)(F)F)ncc1-c1nc2c(n1C(C)C)[C@]1(C(=O)Nc3cc(Cl)ccc31)N(c1cc(Cl)cnc1C)C2=O` [Example R-152, (R)-6-chloro-5′-(5-chloro-2-methylpyridin-3-yl)-3′-isopropyl-2′-(4-methoxy-6-(trifluoromethyl)pyridine-3-yl)-3′H-spiro[dihydroindole-3,4′-pyrrolo[3,4-d]imidazole]-2,6′(5′H)-dione], `COc1cc(OCCF)ncc1-c1nc2c(n1C(C)C)[C@]1(C(=O)Nc3cc(Cl)ccc31)N(c1cc(Cl)cnc1C)C2=O` [Example R-173, (R)-6-chloro-5′-(5-chloro-2-methylpyridin-3-yl)-2′-(6-(2-fluoroethoxy)-4-methoxypyridin-3-yl)-3′-isopropyl-3′H-spiro[dihydroindole-3,4′-pyrrolo[3,4-d]imidazole]-2,6′(5′H)-dione] is 3.9-fold higher in IC50: 134 nM for the first, 528 nM for the second.

`COc1cc(OCC(F)F)ncc1-c1nc2c(n1C(C)C)[C@]1(C(=O)Nc3cc(Cl)ccc31)N(c1cc(Cl)ccc1C)C2=O` [Example R-153, (R)-6-chloro-5′-(5-chloro-2-methylphenyl)-2′-(6-(2,2-difluoroethoxy)-4-methoxypyridin-3-yl)-3′-isopropyl-3′H-spiro[dihydroindole-3,4′-pyrrolo[3,4-d]imidazole]-2,6′(5′H)-dione] and `COc1cc(C)ncc1-c1nc2c(n1C(C)C)[C@]1(C(=O)Nc3cc(Cl)ccc31)N(c1cc(Cl)ccc1C)C2=O` [Example R-154, (R)-6-chloro-5′-(5-chloro-2-methylphenyl)-3′-isopropyl-2′-(4-methoxy-6-methylpyridin-3-yl)-3′H-spiro[dihydroindole-3,4′-pyrrolo[3,4-d]imidazole]-2,6′(5′H)-dione] are the same in IC50: 31.1 nM for the first, 31.1 nM for the second.

Compared with `COc1ncc(-c2nc3c(n2C(C)C)[C@]2(C(=O)Nc4cc(Cl)ccc42)N(c2ccc(OC(F)(F)F)c(Cl)c2)C3=O)c(OC)n1` [Example R-161, (R)-6-chloro-5′-(3-chloro-4-(trifluoromethoxy)phenyl)-2′-(2,4-dimethoxypyrimidin-5-yl)-3′-isopropyl-3′H-spiro[dihydroindole-3,4′-pyrrolo[3,4-d]imidazole]-2,6′(5′H)-dione], `COc1ncc(-c2nc3c(n2C(C)C)[C@@]2(C(=O)Nc4cc(Cl)ccc42)N(c2ccc(OC)c(Cl)c2)C3=O)c(OC)n1` [Example S-48, (S)-6-chloro-5′-(3-chloro-4-methoxyphenyl)-2′-(2,4-dimethoxypyrimidin-5-yl)-3′-isopropyl-3′H-spiro[dihydroindole-3,4′-pyrrolo[3,4-d]imidazole]-2,6′(5′H)-dione] is 86-fold lower in IC50: 126 nM for the first, 1.46 nM for the second. The second is the more potent here.

`COc1cc(C(C)C)ncc1-c1nc2c(n1C(C)C)[C@]1(C(=O)Nc3cc(Cl)ccc31)N(c1cc(Cl)ccc1C)C2=O` [Example R-164, (R)-6-chloro-5′-(5-chloro-2-methylphenyl)-3′-isopropyl-2′-(6-isopropyl-4-methoxypyridin-3-yl)-3′H-spiro[dihydroindole-3,4′-pyrrolo[3,4-d]imidazole]-2,6′(5′H)-dione] and `COc1nc(C(C)C)ncc1-c1nc2c(n1C(C)C)[C@]1(C(=O)Nc3cc(Cl)ccc31)N(c1cc(Cl)ccc1C)C2=O` [Example R-172, (R)-6-chloro-5′-(5-chloro-2-methylphenyl)-3′-isopropyl-2′-(2-isopropyl-4-methoxypyrimidin-5-yl)-3′H-spiro[dihydroindole-3,4′-pyrrolo[3,4-d]imidazole]-2,6′(5′H)-dione] are within 1.5-fold of each other in IC50: 592 nM for the first, 408 nM for the second.

First: COc1nc(OCCF)ncc1-c1nc2c(n1C(C)C)[C@]1(C(=O)Nc3cc(Cl)ccc31)N(c1cc(Cl)cnc1C)C2=O [Example R-170, (R)-6-chloro-5′-(5-chloro-2-methylpyridin-3-yl)-2′-(2-(2-fluoroethoxy)-4-methoxypyrimidin-5-yl)-3′-isopropyl-3′H-spiro[dihydroindole-3,4′-pyrrolo[3,4-d]imidazole]-2,6′(5′H)-dione]
Second: COc1nc(OCCF)ncc1-c1nc2c(n1C(C)C)[C@]1(C(=O)Nc3cc(Cl)ccc31)N(c1cccc(Cl)c1)C2=O [Example R-171, (R)-6-chloro-5′-(3-chlorophenyl)-2′-(2-(2-fluoroethoxy)-4-methoxypyrimidin-5-yl)-3′-isopropyl-3′H-spiro[dihydroindole-3,4′-pyrrolo[3,4-d]imidazole]-2,6′(5′H)-dione]
The IC50 of the first is 38-fold lower: 235 nM for the first, 8830 nM for the second. The first is the more potent here.

Compared with `COc1nc(C2CC2)ncc1-c1nc2c(n1C(C)C)[C@]1(C(=O)Nc3cc(Cl)ccc31)N(c1cc(F)cc(Cl)c1)C2=O` [Example R-174, (R)-6-chloro-5′-(3-chloro-5-fluorophenyl)-2′-(2-cyclopropyl-4-methoxypyrimidin-5-yl)-3′-isopropyl-3′H-spiro[dihydroindole-3,4′-pyrrolo[3,4-d]imidazole]-2,6′(5′H)-dione], `COc1cc(C2CC2)ncc1-c1nc2c(n1C(C)C)[C@]1(C(=O)Nc3cc(Cl)ccc31)N(c1cc(F)cc(Cl)c1)C2=O` [Example R-176, (R)-6-chloro-5′-(3-chloro-5-fluorophenyl)-2′-(6-cyclopropyl-4-methoxypyridin-3-yl)-3′-isopropyl-3′H-spiro[dihydroindole-3,4′-pyrrolo[3,4-d]imidazole]-2,6′(5′H)-dione] is 1.6-fold lower in IC50: 515 nM for the first, 321 nM for the second. The second is the more potent here.

Going from `COc1cc(OC)c(-c2nc3c(n2C(C)C)[C@]2(C(=O)Nc4cc(Cl)ccc42)N(c2cc(F)cc(Cl)c2)C3=O)cn1` [Example R-175, (R)-6-chloro-5′-(3-chloro-5-fluorophenyl)-2′-(4,6-dimethoxypyridin-3-yl)-3′-isopropyl-3′H-spiro[dihydroindole-3,4′-pyrrolo[3,4-d]imidazole]-2,6′(5′H)-dione] to `COc1ncc(-c2nc3c(n2C(C)C)[C@@]2(C(=O)Nc4cc(Cl)ccc42)N(c2ccc(C(N)=O)c(Cl)c2)C3=O)c(OC)n1` [Example S-60, (S)-2-chloro-4-(6-chloro-2′-(2,4-dimethoxypyrimidin-5-yl)-3′-isopropyl-2,6′-dioxo-3′,6′-dihydro-5′H-spiro[dihydroindole-3,4′-pyrrolo[3,4-d]imidazole]-5′-yl)benzamide], the IC50 falls from 522 nM to 4.81 nM (110-fold).

With `COc1ncc(-c2nc3c(n2C(C)C)[C@@]2(C(=O)Nc4cc(Cl)ccc42)N(c2cc(C)ccc2C)C3=O)c(OC)n1` [Example S-56, (S)-6-chloro-2′-(2,4-dimethoxypyrimidin-5-yl)-5′-(2,5-dimethylphenyl)-3′-isopropyl-3′H-spiro[dihydroindole-3,4′-pyrrolo[3,4-d]imidazole]-2,6′(5′H)-dione] the IC50 was 5.19 nM.
